In patent US9023849B2, “Substituted fused imidazoles and pyrazoles and use thereof” (Bayer Intellectual Property GmbH, priority 2012, dated 2015):
pIC50: −log10 of the molar value.

What was measured:
[1] = tested on: recombinant guanylate cyclase reporter cell line; assay: Effect on a recombinant guanylate cyclase reporter cell line; assay type: cell-based; conditions: read-out: MEC (minimal effective concentration)
Experimental: B-2. Effect on a Recombinant Guanylate Cyclase Reporter Cell Line
The cellular action of the inventive compounds is determined on a recombinant guanylate cyclase reporter cell line as described in F. Wunder et al., Anal. Biochem. 339, 104-112 (2005).

[2] = biological target: human PDE 5 (Homo sapiens (Human), UniProt O76074); assay: Inhibition of human phosphodiesterase 5 (PDE 5), SPA assay; assay type: biochemical; conditions: PDE 5 preparation from human platelets, [8-3H]cGMP substrate
Experimental: B-6. Inhibition of Human Phosphodiesterase 5 (PDE 5)
PDE 5 preparations are obtained from human platelets by disruption (Microfluidizer®, 800 bar, 3 passes), followed by centrifugation (75 000 g, 60 min, 4° C.) and ion exchange chromatography of the supernatant on a Mono Q 10/10 column (linear sodium chloride gradient, elution with a 0.2-0.3M solution of sodium chloride in buffer (20 mM Hepes pH 7.2, 2 mM magnesium chloride). Fractions having PDE 5 activity are combined (PDE 5 preparation) and stored at −80° C.
To determine their in vitro action on human PDE 5, the test substances are dissolved in 100% DMSO and serially diluted. Typically, dilution series (1:3) from 200 μM to 0.091 μM are prepared (resulting final concentrations in the test: 4 μM to 0.0018 μM). In each case 2 μl of the diluted substance solutions are placed into the wells of microtitre plates (Isoplate-96/200 W; Perkin Elmer). Subsequently, 50 μl of a dilution of the above-described PDE 5 preparation are added. The dilution of the PDE 5 preparation is selected such that, during the later incubation, less than 70% of the substrate is converted (typical dilution: 1:100; dilution buffer: 50 mM tris/hydrochloric acid pH 7.5, 8.3 mM magnesium chloride, 1.7 mM EDTA, 0.2% BSA). The substrate, [8-^3H]cyclic guanosine-3′,5′-monophosphate (1 μCi/μl; Perkin Elmer) is diluted 1:2000 with assay buffer (50 mM tris/hydrochloric acid pH 7.5, 8.3 mM magnesium chloride, 1.7 mM EDTA) to a concentration of 0.0005 μCi/μl. By addition of 50 μl (0.025 μCi) of the diluted substrate, the enzyme reaction is finally started. The test mixtures are incubated at room temperature for 60 min and the reaction is stopped by adding 25 μl of a suspension of 18 mg/ml yttrium scintillation proximity beads in water (phosphodiesterase beads for SPA assays, RPNQ 0150, Perkin Elmer). The microtitre plates are sealed with a film and left to stand at room temperature for 60 min Subsequently, the plates are analysed for 30 s per well in a Microbeta scintillation counter (Perkin Elmer). IC50 values are determined using the graphic plot of the substance concentration against percentage PDE 5 inhibition.

[3] = tested on: rabbit aorta rings; assay: Vasorelaxant effect in vitro (rabbit aorta rings precontracted with phenylephrine); conditions: Oryctolagus cuniculus, phenylephrine contraction, read-out: IC50 (concentration needed to reduce the magnitude of the phenylephrine contraction by 50%)
Experimental: B-1. Vasorelaxant Effect In Vitro
Rabbits are stunned by a blow to the neck and exsanguinated. The aorta is removed, freed from adhering tissue and divided into rings of width 1.5 mm, which are placed individually under prestress into 5 ml organ baths with carbogen-sparged Krebs-Henseleit solution at 37° C. having the following composition (each mM): sodium chloride: 119; potassium chloride: 4.8; calcium chloride dihydrate: 1; magnesium sulphate heptahydrate: 1.4; potassium dihydrogenphosphate: 1.2; sodium hydrogencarbonate: 25; glucose: 10. The contractile force is determined with Statham UC2 cells, amplified and digitalized using A/D transducers (DAS-1802 HC, Keithley Instruments Munich), and recorded in parallel on linear recorders.
To obtain a contraction, phenylephrine is added to the bath cumulatively in increasing concentration. After several control cycles, the substance to be studied is added in increasing dosage each time in every further run, and the magnitude of the contraction is compared with the magnitude of the contraction attained in the last preceding run. This is used to calculate the concentration needed to reduce the magnitude of the control value by 50% (IC50 value). The standard administration volume is 5 μl; the DMSO content in the bath solution corresponds to 0.1%.

## Cc1ncc2c(-c3ncc4c(n3)NC(=O)C4(C)C)nn(Cc3ccccc3F)c2n1 [Example 15, 2-[1-(2-Fluorobenzyl)-6-methyl-1H-pyrazolo[3,4-d]pyrimidin-3-yl]-5,5-dimethyl-5,7-dihydro-6H-pyrrolo[2,3-d]pyrimidin-6-one]
[1]
  minimal effective concentration: 0.1 µM
[2]
  pIC50: 6.51
[3]
  pIC50: 7.11
